Assays:
NO production = NO production with recombinant vWF protein
glucose uptake = test: Glucose uptake with recombinant vWF protein

For “recombinant vWF protein: a recombinant vWF protein with a specific vWF sequence (SEQ ID NO: 1) (EPECNDITARLQYVKVGSCKSEVEVDIHYCQGKCASKAMYSIDINDVQDQCSC; listed as Homo sp.)”, the NO production (NO production) was “significantly inhibit” and the glucose uptake (glucose uptake) was “significantly inhibit”.

Reference: patent US12121561B1, “Composition for treating or preventing insulin resistance” (KING FAISAL UNIVERSITY, priority 2024, dated 2024)
